Holding throughout (format): in vivo
Assay [1] deals with Dysaphis plantaginea. Nature of the assay: Example 41: apple trees treated against Dysaphis plantaginea (Henderson and Tilton). The settings on record: live animals on shoots, % a.i.: imidacloprid 0.007, I-9 0.0144, I-2 0.0144; for Effect (%) 7 d: 7 d after treatment; for Effect (%) 14 d: 14 d after treatment. Here is the method: In three replications, three about 8-year-old apple trees of the cultivar “Golden Delicious” are treated eradicatively against Dysaphis plantaginea and Aphis pomi. The application is carried out using a motor-operated barrow-mounted sprayer. Here, the active compounds Example (I-9) (240 SC) and Example (I-2) (240 SC) in the stated amount are tested against the commercial standard imidacloprid (200 SL), at the stated application rate. The application rate is 1200 l of water/ha.
Evaluation is carried out before and also 7 d and 14 d after the treatment by counting the live animals on the shoots. The efficacy is then calculated by calculating the effect on the population in percent according to Henderson and Tilton.

The subject of another assay is Macrosiphum euphorbiae. Nature of the assay: Example 43: aubergines treated against Macrosiphum euphorbiae. As to conditions: nymphs on leaves, % a.i.: imidacloprid 0.014, I-9, I-2, I-11 0.0144; for Kill (%) 7 d: 7 d after second treatment; for Kill (%) 14 d: 14 d after second treatment. Here is the method: In three replications, plots of a size of 10 m^2 with aubergines of the cultivar “F 100” are treated against Macrosiphum euphorbiae. The application is carried out using a knapsack sprayer operated with pressurized air. Here, the active compounds Example (I-9) (60 SC), Example (I-2) (60 SC) and Example (I-11) (60 SC) and the commercial standard imidacloprid (70 WG) are tested at the stated application rates. Three applications are carried out, at an interval of 7 or 8 days. The application rate is 1000 l of water/ha.
Evaluation is carried out 7 and 14 days after the second treatment by rating the kill of the nymphs on the leaves.

The test system of assay [2] is Dysaphis plantaginea. As to the kind of experiment: Example 40: apple trees treated against Dysaphis plantaginea. As to conditions: population on shoots, % a.i.: imidacloprid 0.007, I-9 0.0144, I-4 0.0144; for Kill (%) 14 d: 14 d after treatment; for Kill (%) 21 d: 21 d after treatment. How it is done: (§1) In three replications, three about 22-year-old apple trees of the cultivar “Golden Delicious” are treated eradicatively against Dysaphis plantaginea and Aphis pomi. The application is carried out using a motor-operated barrow-mounted sprayer. Here, the active compounds Example (I-9) (240 SC) and Example (I-4) (240 SC) in the stated amount are tested against the commercial standard imidacloprid (200 SL), at the stated application rate. The application rate is 1200 l of water/ha.
(§2) Evaluation is carried out 14 d and 21 d after the treatment by rating the kill of the population on the shoots.

The next assay has as its system Aleurodes citri. As to the kind of experiment: Example 31: orange tree treated against Aleurodes citri. The settings on record: on leaves, g a.i./ha/m crown height: imidacloprid 75, I-4 72; for Kill (%) 7 d: 7 d after treatment; for Kill (%) 14 d: 14 d after treatment; for Kill (%) 21 d: 21 d after treatment. How it is done:
In four replications, in each case one orange tree of the cultivar “Newhall” is treated against Aleurodes citri. Here, the active compound Example (I-4) (240 SC) is, at the stated application rate, tested against the commercial standard imidacloprid. The active compounds are applied in a tank mix with 0.5% a.i. of Oliocin (700 EW), at an application rate of 1500 l of water/ha. The application is carried out using a motor-operated knapsack sprayer.
Evaluation is carried out 7, 14 and 21 days after the treatment by rating the kill of the animals on the leaves.

In a further assay the test system is Bemisia tabaci. Nature of the assay: Example 33: cucumbers treated against Bemisia tabaci. The settings on record: nymphs on leaves, % a.i.: imidacloprid 0.144, I-4 0.084; for Kill (%) 7 d: 7 d after first of two treatments; for Kill (%) 11 d: 11 d after first of two treatments; for Kill (%) 21 d: 21 d after first of two treatments. Here is the method:
In four replications, plots of a size of 26 m^2 with cucumbers of the cultivar “Beta alpha” are treated against Bemisia tabaci. The application is carried out using a knapsack sprayer operated with pressurized air. Here, the active compound Example (I-4) (240 SC), in a tank mix with 0.1% a.i. of rapeseed oil methyl ester (500 EW), and the commercial standard imidacloprid (200 SC) are tested at the stated application rates. Two applications are carried out, at an interval of 10 days. The application rate is 1000 l of water/ha.
Evaluation is carried out 7, 11 and 21 days after the first treatment by rating the kill of the animals (nymphs) on leaves.

The subject of the next assay is Pseudococcus spp. Nature of the assay: Example 28: vines treated against Pseudococcus spp. As to conditions: 28 days after last of two treatments, on grapes, imidacloprid drip irrigation 560 g/ha, I-4 0.0168%, I-9 0.0144% spray. Here is the method:
In four replications, three in each case about 12-year-old vines of the cultivar “Auvemat” are treated against Pseudococcus spp. The commercial standard used is an application with imidacloprid at the recommended application rate, by drip irrigation. The active compounds are applied by spraying using a knapsack sprayer operated with pressurized air. Here, the active compounds Example (I-4) (240 SC) and Example (I-9) (240 SC) are applied in a tank mix with 0.1% a.i. of rapeseed oil methyl ester (500 EW), at the stated amount. Two applications are carried out at an interval of 15 days. The application rate is 1776 l of water/ha. Evaluation is carried out 28 days after the last treatment by rating the kill on grapes in percent.

Another assay has as its system Aphis pomi. As to the kind of experiment: Example 40: apple trees treated against Aphis pomi. The settings on record: population on shoots, % a.i.: imidacloprid 0.007, I-9 0.0144, I-4 0.0144; for Kill (%) 14 d: 14 d after treatment; for Kill (%) 21 d: 21 d after treatment. Here is the method:
as §1, §2

The test system of the next assay is Trioza erythreae. As to the kind of experiment: Example 8: orange trees treated against Trioza erythreae. As to conditions: nymphs on branches, rate %: imidacloprid 0.004, I-4 0.0144; for Kill (%) 7 d: 7 d after first of two treatments; for Kill (%) 14 d: 14 d after first of two treatments; for Kill (%) 20 d: 20 d after first of two treatments. How it is done: In three replications, about 2-year-old orange trees are treated against Trioza erythreae. The application is carried out using a knapsack sprayer operated with pressurized air. Here, the active compound Example (I-4) (240 SC) is tested in a tank mix with 0.2% a.i. of rapeseed oil methyl ester (500 EW) against the commercial standard imidacloprid (100 SL) at the stated application rates. The application rate is 540 l of water/ha. Two treatments are carried out, at an interval of 7 days.
Evaluation is carried out 7, 14 and 20 days after the first treatment by rating the kill of the nymphs on the branches.

Take `CCOC(=O)OC1=C(c2cc(C)ccc2Br)C(=O)NC12CCC(OC)CC2` (stereo not drawn) [Example (I-2)]: in the assay on Dysaphis plantaginea [1], the “Effect (%) 7 d” value is reported as 92.3% and the “Effect (%) 14 d” value worked out at 99.2%. For the same molecule, in the assay with Macrosiphum euphorbiae, the “Kill (%) 7 d” value came to 99% and the “Kill (%) 14 d” value worked out at 91%.

In the case of `CCOC(=O)OC1=C(c2cc(C)ccc2C)C(=O)NC12CCC(OC)CC2` (stereo not drawn) [Example (I-4)], the “Kill (%) 14 d” value in the assay with Dysaphis plantaginea [2] is recorded as 99.3%; in the assay on Aleurodes citri, 99.5%; in the assay with Aphis pomi it was 96.9%; with Trioza erythreae, 98.9%. In addition, the “Kill (%) 21 d” value came out at 100% in the assay on Dysaphis plantaginea [2], 99.9% in the assay with Aleurodes citri, 90% with Bemisia tabaci and 98.8% with Aphis pomi. Also, the entries for the “Kill (%) 7 d” value in the assay on Aleurodes citri, with Bemisia tabaci and in the assay with Trioza erythreae were 90.9%, 75% and 97.9%, respectively. In addition, the “Kill (%) 11 d” value with Bemisia tabaci was found to be 87%. Besides, in the assay on Pseudococcus spp., the “Kill (%)” value turned out to be 99%. Further, the “Kill (%) 20 d” value in the assay on Trioza erythreae stood at 98.3%.

Regarding `O=[N+]([O-])NC1=NCCN1Cc1ccc(Cl)nc1` [imidacloprid, reference compound], in the assay with Dysaphis plantaginea [2], the “Kill (%) 14 d” value stood at 97.6% and the “Kill (%) 21 d” value is given as 99.8%. Besides, in the assay on Aleurodes citri, the “Kill (%) 7 d” value stood at 98.4%, the “Kill (%) 14 d” value turned out to be 99.6% and the “Kill (%) 21 d” value is 99.4%. Further, in the assay with Bemisia tabaci, the “Kill (%) 7 d” value is reported as 89%, the “Kill (%) 11 d” value was 96% and the “Kill (%) 21 d” value came to 96%. Also, in the assay with Dysaphis plantaginea [1], the “Effect (%) 7 d” value turned out to be 99.6% and the “Effect (%) 14 d” value is recorded as 99.5%. In addition, the “Kill (%)” value in the assay with Pseudococcus spp. was 100%. Also, in the assay on Aphis pomi, the “Kill (%) 14 d” value worked out at 93.6% and the “Kill (%) 21 d” value amounted to 92.5%. Besides, in the assay with Trioza erythreae, the “Kill (%) 7 d” value is listed as 98.4%, the “Kill (%) 14 d” value amounted to 99.2% and the “Kill (%) 20 d” value stood at 98.6%. Besides, in the assay on Macrosiphum euphorbiae, the “Kill (%) 7 d” value is listed as 100% and the “Kill (%) 14 d” value amounted to 100%.

Source of the values: patent US20090012152A1, “Use of Tetramic Acid Derivatives for Controlling Insects from the Genus of the Plane Lice (Sternorrhyncha)” (Bayer CropScience Aktiengesellschaft, priority 2005, published 2009).
